biological target: T1, panel of 442 kinases (Homo sapiens, UniProt P52333); assay type: binding; conditions: Compound Concentration 10 µM
T1 construct: purchased KINOMEscan
T1 sequence (P52333 1-1124): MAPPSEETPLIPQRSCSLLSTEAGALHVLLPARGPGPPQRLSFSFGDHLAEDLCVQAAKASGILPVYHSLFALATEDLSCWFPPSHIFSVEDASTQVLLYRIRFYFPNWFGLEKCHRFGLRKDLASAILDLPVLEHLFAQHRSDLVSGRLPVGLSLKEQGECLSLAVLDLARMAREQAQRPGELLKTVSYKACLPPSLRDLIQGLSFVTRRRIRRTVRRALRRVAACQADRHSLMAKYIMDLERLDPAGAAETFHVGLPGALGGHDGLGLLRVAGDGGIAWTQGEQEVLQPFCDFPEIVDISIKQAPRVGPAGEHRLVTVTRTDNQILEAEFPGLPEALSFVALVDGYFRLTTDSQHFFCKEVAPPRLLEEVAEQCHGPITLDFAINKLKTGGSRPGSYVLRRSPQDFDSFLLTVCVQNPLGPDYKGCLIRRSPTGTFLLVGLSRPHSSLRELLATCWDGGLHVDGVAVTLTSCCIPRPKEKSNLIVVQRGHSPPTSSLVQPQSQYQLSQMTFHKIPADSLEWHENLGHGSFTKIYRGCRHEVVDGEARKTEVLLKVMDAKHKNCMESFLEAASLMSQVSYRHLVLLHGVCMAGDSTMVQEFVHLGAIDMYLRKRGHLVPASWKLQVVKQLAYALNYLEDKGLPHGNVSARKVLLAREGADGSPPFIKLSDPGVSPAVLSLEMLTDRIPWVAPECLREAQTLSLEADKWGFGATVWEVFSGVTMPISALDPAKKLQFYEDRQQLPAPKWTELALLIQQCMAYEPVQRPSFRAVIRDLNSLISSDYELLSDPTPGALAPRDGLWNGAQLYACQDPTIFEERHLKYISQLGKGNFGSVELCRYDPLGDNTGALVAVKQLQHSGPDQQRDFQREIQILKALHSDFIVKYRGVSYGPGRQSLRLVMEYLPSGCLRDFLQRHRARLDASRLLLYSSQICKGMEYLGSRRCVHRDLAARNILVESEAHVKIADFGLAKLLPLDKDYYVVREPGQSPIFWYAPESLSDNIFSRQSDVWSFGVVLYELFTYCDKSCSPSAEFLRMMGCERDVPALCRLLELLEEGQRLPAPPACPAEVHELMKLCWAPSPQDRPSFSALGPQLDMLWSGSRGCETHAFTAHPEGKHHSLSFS
From the text: We assessed the selectivity of members of this scaffold using the KINOMEscan methodology across a near comprehensive panel of 442 kinases [[18,27]].

Compound | KINOMEscan: JAK3(JH1domain-catalytic)
COc1cc(C(=O)N2CCC(N3CCN(C)CC3)CC2)ccc1Nc1ncc2c(n1)N(C)c1ccccc1C(=O)N2C [15 (LRRK2-IN-1)] | 100
CCOc1cc(C(=O)N2CCC(N3CCN(C)CC3)CC2)ccc1Nc1ncc2c(n1)N(C1CCCC1)c1ccccc1C(=O)N2C [Compound 26] | 100
COc1cc(C(=O)N2CCC(N3CCN(C)CC3)CC2)ccc1Nc1ncc2c(n1)N(C1CCCC1)c1ccccc1C(=O)N2C [Compound 25, 11-cyclopentyl-2-((2-methoxy-4-(4-(4-methylpiperazin-1-yl)piperidine-1-carbonyl)phenyl)amino)-5-methyl-5H-benzo[e]pyrimido[5,4-b][1,4]diazepin-6(11H)-one] | 100

Reference: PMC3914206
